Here are results for 35 compounds from US10450263B2, “Benzo annulenes as antiviral agents” (Southern Research Institute, priority 2017, dated 2019).

Molecules are shown by their SMILES. Some results are limits rather than exact numbers.

The subject of one data set is Chikungunya virus. The experiment in a line: Evaluation of antiviral activity against Chikungunya virus (EC90). Type of data set: cell-based. The settings on record: Chikungunya virus, read-out: EC90 (μM) CHIKV, concentration required for 90% inhibition of CHIKV. The source says: EC90 refers to the concentration of the compound that is required for 90% antagonism or inhibition of CHIKV. EC90 also refers to the concentration of a substance that is required for 90% antagonism or inhibition of CHIKV in vivo.
(§1) The compounds below in Table 1 were synthesized with methods identical or analogous to those described herein. The requisite starting materials were commercially available, described in the literature, or readily synthesized by one skilled in the art of organic synthesis.

Data set [1] in a line: CC50 reported alongside the CHIKV antiviral assay (cytotoxicity). Type of data set: cell-based. To be noted: cell line not given.
From the text: as §1

As for `COc1cc2c(cc1NC(=O)c1cc(C(C)(C)C)c(O)c(C(C)(C)C)c1)CCCCC2` [Compound 70, 3,5-Di-tert-butyl-4-hydroxy-N-(3-methoxy-6,7,8,9-tetrahydro-5H-benzo[7]annulen-2-yl)benzamide], in the data set on Chikungunya virus, the EC90 amounted to 44.8 µM. Moreover, in data set [1], the CC50 is above 30 µM. For `COc1cc2c(cc1N1Cc3ccc(C(C)(C)C)cc3C1=O)CCCCC2` [Compound 59, 6-(tert-Butyl)-2-(3-methoxy-6,7,8,9-tetrahydro-5H-benzo[7]annulen-2-yl)isoindolin-1-ONE] the same measures were above 10 µM and above 30 µM. Taken in the same sequence, the figures for `COc1cc2c(cc1NC(=O)c1cnc(C(C)(C)C)s1)CCCCC2` [Compound 44, 2-(tert-Butyl)-N-(3-methoxy-6,7,8,9-tetrahydro-5H-benzo[7]annulen-2-yl)thiazole-5-carboxamide] were 1.2 µM and above 30 µM.

Take `COc1c(NC(=O)c2cnc(C(C)(C)C)s2)cc2c(c1F)CCCCC2` [Compound 24, 2-(tert-Butyl)-N-(4-fluoro-3-methoxy-6,7,8,9-tetrahydro-5H-benzo[7]annulen-2-yl)thiazole-5-carboxamide]: in the data set with Chikungunya virus, the EC90 is above 10 µM. The CC50 in data set [1] was above 30 µM. As to `COc1cc2c(cc1NC(=O)C1CCOCC1)CCCCC2` [Compound 82, N-(3-methoxy-6,7,8,9-tetrahydro-5H-benzo[7]annulen-2-yl)tetrahydro-2H-pyran-4-carboxamide], the EC90 in the data set with Chikungunya virus is above 10 µM. In data set [1], this compound yielded a CC50 above 30 µM.

Take `COc1cc2c(cc1NC(=O)c1ccc(N(C)C)cc1)CCCCC2` [Compound 76, 4-(Dimethylamino)-N-(3-methoxy-6,7,8,9-tetrahydro-5H-benzo[7]annulen-2-yl)benzamide]: the EC90 with Chikungunya virus is above 10 µM. Moreover, in data set [1], the CC50 was above 30 µM. Taken in the same sequence, the figures for `COc1cc2c(cc1NC(=O)c1ccc(C3(O)CCC3)cc1)CCCCC2` [Compound 66, 4-(1-Hydroxycyclobutyl)-N-(3-methoxy-6,7,8,9-tetrahydro-5H-benzo[7]annulen-2-yl)benzamide] were above 10 µM and above 30 µM. For `COc1cc2c(cc1NC(=O)c1ccc(C(C)(C)CO)cc1)CCCCC2` [Compound 47] the same measures were 7.1 µM and 96.3 µM.

In the case of `CCCc1ccc(C(=O)Nc2cc3c(cc2OC)CCCCC3)cc1` [Compound 57, N-(3-methoxy-6,7,8,9-tetrahydro-5H-benzo[7]annulen-2-yl)-4-propylbenzamide], the EC90 with Chikungunya virus is above 10 µM. In addition, in data set [1], the 50% cytotoxic concentration (CC50) is above 30 µM. As for `COc1cc2c(cc1NC(=O)c1cccc(C(C)(C)C)c1)CCCCC2` [Compound 41, 3-(tert-Butyl)-N-(3-methoxy-6,7,8,9-tetrahydro-5H-benzo[7]annulen-2-yl)benzamide], in the data set on Chikungunya virus, the EC90 was 34.1 µM. The CC50 in data set [1] was above 30 µM. In the case of `COc1cc2c(cc1NC(=O)c1ccc(Cl)cc1I)CCCCC2` [Compound 75, 4-Chloro-2-iodo-N-(3-methoxy-6,7,8,9-tetrahydro-5H-benzo[7]annulen-2-yl)benzamide], the EC90 in the data set on Chikungunya virus came out at 6.1 µM. The same compound returned a CC50 in data set [1] above 30 µM. Take `COc1cc2c(cc1NC(=O)c1ccc(C(C)(C)C)s1)CCCCC2` [Compound 38, 5-(tert-Butyl)-N-(3-methoxy-6,7,8,9-tetrahydro-5H-benzo[7]annulen-2-yl)thiophene-2-carboxamide]: in the data set on Chikungunya virus, the EC90 is 3.1 µM. Also, the CC50 in data set [1] was 32 µM. `COc1cc2c(cc1NC(=O)c1ccc(C(C)(C)C)cc1)CCCCC2` [Compound 3, 4-(tert-Butyl)-N-(3-methoxy-6,7,8,9-tetrahydro-5H-benzo[7]annulen-2-yl)benzamide]: the CC50 in data set [1] is above 30 µM. With `COc1cc2c(cc1NC(=O)c1ccc(F)cc1)CCCCC2` [Compound 78, 4-Fluoro-N-(3-methoxy-6,7,8,9-tetrahydro-5H-benzo[7]annulen-2-yl)benzamide], the EC90 with Chikungunya virus was above 10 µM. This compound also registered a CC50 in data set [1] above 30 µM. Regarding `COc1cc2c(cc1NC(=O)c1ccc(C(F)(F)F)cc1)CCCCC2` [Compound 74, N-(3-methoxy-6,7,8,9-tetrahydro-5H-benzo[7]annulen-2-yl)-4-(trifluoromethyl)benzamide], in the data set on Chikungunya virus, the EC90 stood at 7.4 µM. In data set [1], this compound showed a CC50 above 30 µM.

On to `COc1cc2c(cc1NC(=O)Cc1ccc(C(C)(C)C)cc1)CCCCC2` [Compound 54], for which, in the data set with Chikungunya virus, the EC90 is 42.9 µM. Besides, the CC50 in data set [1] is above 30 µM. Consider `CC(C)(C)c1ccc(C(=O)Nc2ccc3c(c2OC(F)(F)F)CCCCC3)cc1` [Compound 87, 4-(tert-butyl)-N-(1-(trifluoromethoxy)-6,7,8,9-tetrahydro-5H-benzo[7]annulen-2-yl)benzamide], for which, in the data set on Chikungunya virus, the EC90 turned out to be 19.5 µM. The same compound gave a half-maximal cytotoxic concentration (CC50) in data set [1] above 30 µM.

For the compound `CC(C)(C)c1ccc(C(=O)Nc2cc3c(cc2OC(F)(F)F)CCCCC3)cc1` [Compound 13, 4-(tert-butyl)-N-(3-(trifluoromethoxy)-6,7,8,9-tetrahydro-5H-benzo[7]annulen-2-yl)benzamide], the EC90 with Chikungunya virus worked out at 13.7 µM. The compound also displayed a CC50 in data set [1] above 25 µM. Take `COc1cc2c(cc1NC(=O)c1ccc(C(=O)O)cc1)CCCCC2` [Compound 55]: in the data set with Chikungunya virus, the EC90 was above 10 µM. This compound showed a CC50 in data set [1] above 30 µM. As to `COc1cc2c(cc1NC(=O)c1ccc(C(C)(C)C)c(F)c1)CCCCC2` [Compound 53, 4-(tert-Butyl)-3-fluoro-N-(3-methoxy-6,7,8,9-tetrahydro-5H-benzo[7]annulen-2-yl)benzamide], in the data set on Chikungunya virus, the EC90 stood at 2.24 µM. This compound also came in with a CC50 in data set [1] above 30 µM.

In the case of `COc1cc2c(cc1NC(=O)c1cc(C)n(C(C)(C)C)n1)CCCCC2` [Compound 61], the EC90 with Chikungunya virus is 5.64 µM. The same compound gave a CC50 in data set [1] above 30 µM. `COc1cc2c(cc1NC(=O)c1ccc(C3(C(F)(F)F)CC3)cc1)CCCCC2` [Compound 51, N-(3-methoxy-6,7,8,9-tetrahydro-5H-benzo[7]annulen-2-yl)-4-(1-(trifluoromethyl)cyclopropyl)benzamide]: the EC90 in the data set on Chikungunya virus worked out at 1.3 µM. The compound also came in with a CC50 in data set [1] above 30 µM. Regarding `COc1cc2c(cc1NC(=O)c1ccc(C(C)(C)C)o1)CCCCC2` [Compound 37, 5-(tert-Butyl)-N-(3-methoxy-6,7,8,9-tetrahydro-5H-benzo[7]annulen-2-yl)furan-2-carboxamide], the EC90 in the data set on Chikungunya virus was 23.2 µM. In addition, in data set [1], the CC50 is above 30 µM. Take `CCn1nc(C(=O)Nc2ccc3c(c2)CCCCC3)cc1C` [Compound 26, 1-ethyl-5-methyl-N-(6,7,8,9-tetrahydro-5H-benzo[7]annulen-2-yl)-1H-pyrazole-3-carboxamide]: the EC90 with Chikungunya virus is above 30 µM. Moreover, the CC50 in data set [1] was above 30 µM. On to `COc1cc2c(cc1NC(=O)c1cc(F)c(C(C)(C)C)c(F)c1)CCCCC2` [Compound 90, 4-(tert-butyl)-3,5-difluoro-N-(3-methoxy-6,7,8,9-tetrahydro-5H-benzo[7]annulen-2-yl)benzamide], for which, in the data set on Chikungunya virus, the EC90 was determined as 3.3 µM. Besides, in data set [1], the CC50 is above 30 µM. As to `COc1c(NC(=O)c2ccc(C(C)(C)C)cc2)cc2c(c1F)CCCCC2` [Compound 23, 4-(tert-butyl)-N-(4-fluoro-3-methoxy-6,7,8,9-tetrahydro-5H-benzo[7]annulen-2-yl)benzamide], the EC90 in the data set on Chikungunya virus amounted to 12.5 µM. The compound further yielded a CC50 in data set [1] above 30 µM.

Consider `COc1cc2c(cc1NC(=O)c1ccc(-c3ccccn3)cc1)CCCCC2` [Compound 67, N-(3-Methoxy-6,7,8,9-tetrahydro-5H-benzo[7]annulen-2-yl)-4-(pyridin-2-yl)benzamide], for which the EC90 in the data set with Chikungunya virus was above 10 µM. The compound also displayed a CC50 in data set [1] above 30 µM. In the case of `CC(C)(C)c1ccc(C(=O)Nc2cc3c(cc2C(F)(F)F)CCCCC3)cc1` [Compound 14, 4-(tert-butyl)-N-(3-(trifluoromethyl)-6,7,8,9-tetrahydro-5H-benzo[7]annulen-2-yl)benzamide], the EC90 in the data set with Chikungunya virus is above 30 µM. For the same compound, the CC50 in data set [1] is above 30 µM.

Turning to `COc1cc2c(cc1N1Cc3cc(C(C)(C)C)ccc3C1=O)CCCCC2` [Compound 60, 5-(tert-Butyl)-2-(3-methoxy-6,7,8,9-tetrahydro-5H-benzo[7]annulen-2-yl)isoindolin-1-one], in the data set with Chikungunya virus, the EC90 was above 10 µM. The compound also gave a CC50 in data set [1] above 30 µM.

`COc1cc2c(cc1NC(=O)c1cn(C)cn1)CCCCC2` [Compound 32, N-(3-methoxy-6,7,8,9-tetrahydro-5H-benzo[7]annulen-2-yl)-1-methyl-1H-imidazole-4-carboxamide]: in the data set with Chikungunya virus, the EC90 was determined as 55.6 µM. The CC50 in data set [1] is above 30 µM.

As for `CC(C)(C)c1ccc(C(=O)Nc2cc3c(cc2OCc2ccccn2)CCCCC3)cc1` [Compound 85, 4-(tert-Butyl)-N-(3-(pyridin-2-ylmethoxy)-6,7,8,9-tetrahydro-5H-benzo[7]annulen-2-yl)benzamide], the EC90 with Chikungunya virus was above 10 µM. The CC50 in data set [1] stood at 9.4 µM. Taken in the same sequence, the figures for `CCn1nc(C(=O)Nc2cc3c(cc2OC)CCCCC3)cc1C` [Compound 31, 1-Ethyl-N-(3-methoxy-6,7,8,9-tetrahydro-5H-benzo[7]annulen-2-yl)-5-methyl-1H-pyrazole-3-carboxamide] were 0.79 µM and above 30 µM. Regarding `COCCOc1cc2c(cc1NC(=O)c1ccc(C(C)(C)C)cc1)CCCCC2` [Compound 21, 4-(tert-Butyl)-N-(3-(2-methoxyethoxy)-6,7,8,9-tetrahydro-5H-benzo[7]annulen-2-yl)benzamide], the EC90 in the data set with Chikungunya virus was above 30 µM. In data set [1], this compound showed a CC50 above 30 µM. For the compound `CC(=O)Oc1cc2c(cc1NC(=O)c1ccc(C(C)(C)C)cc1)CCCCC2` [Compound 16, 3-(4-(tert-Butyl)benzamido)-6,7,8,9-tetrahydro-5H-benzo[7]annulen-2-yl acetate], the EC90 with Chikungunya virus was found to be 2.8 µM. The compound also displayed a CC50 in data set [1] above 30 µM. With `CC(C)(C)c1ccc(C(=O)Nc2ccc3c(c2)CCCCC3)cc1` [Compound 19, 4-(tert-Butyl)-N-(6,7,8,9-tetrahydro-5H-benzo[7]annulen-2-yl)benzamide], the EC90 with Chikungunya virus turned out to be 0.7 µM. The midpoint of cytotoxicity in data set [1], the CC50, lay at 79.1 µM.

A word on the CC50: it is the concentration giving 50% cytotoxicity.
